One data set deals with human Y4/PP1 receptor (Homo sapiens, UniProt P50391). The data set is described as follows: Human Y4/PP1 receptor binding assay ([125I]human PP, membrane protein). The note with it: [125I]human PP, membrane protein; read-out: hNPY4 IC50. A digest of the protocol: (§1)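 Filtration binding with membrane protein and drug dilution, 2 h at room temperature with mixing, radioactivity counted by gamma or scintillation. Y2: 25 pM [125I]PYY in Krebs-Ringer bicarbonate pH 7.4 with 0.01% BSA, nonspecific by 1 μM NPY. Y4/PP1: 50 pM [125I]hPP in HEPES-buffered saline pH 7.4 with protease inhibitors and 0.3% BSA, nonspecific by 1 μM hPP.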
Sequence of human Y4/PP1 receptor (P50391 whole entry): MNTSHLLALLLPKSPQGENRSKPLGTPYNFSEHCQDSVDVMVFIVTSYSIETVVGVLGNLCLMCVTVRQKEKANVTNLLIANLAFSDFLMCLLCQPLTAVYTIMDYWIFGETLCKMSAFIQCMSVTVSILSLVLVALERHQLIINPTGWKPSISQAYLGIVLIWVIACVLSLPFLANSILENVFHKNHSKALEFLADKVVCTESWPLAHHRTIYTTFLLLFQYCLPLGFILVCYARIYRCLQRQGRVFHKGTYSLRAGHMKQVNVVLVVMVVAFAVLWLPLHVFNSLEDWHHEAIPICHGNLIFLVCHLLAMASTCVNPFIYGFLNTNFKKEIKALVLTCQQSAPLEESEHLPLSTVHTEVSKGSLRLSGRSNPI

Data set [1] deals with T1, Rat NPY5 receptor (Rattus norvegicus, UniProt Q63634).
T1 sequence (Q63634 1-445): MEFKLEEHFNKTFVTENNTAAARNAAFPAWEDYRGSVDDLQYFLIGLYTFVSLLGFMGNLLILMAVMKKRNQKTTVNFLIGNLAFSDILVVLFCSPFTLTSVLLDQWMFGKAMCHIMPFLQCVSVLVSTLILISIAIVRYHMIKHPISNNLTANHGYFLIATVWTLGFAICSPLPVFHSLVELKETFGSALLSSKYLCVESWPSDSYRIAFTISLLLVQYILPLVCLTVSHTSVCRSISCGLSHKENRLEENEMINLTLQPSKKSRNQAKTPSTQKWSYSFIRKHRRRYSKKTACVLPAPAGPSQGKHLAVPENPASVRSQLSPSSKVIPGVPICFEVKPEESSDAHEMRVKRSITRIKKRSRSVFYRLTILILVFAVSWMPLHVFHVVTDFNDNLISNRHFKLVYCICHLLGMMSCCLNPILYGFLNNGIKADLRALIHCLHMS
The data set is described as follows: Rat NPY5 cyclase assay (in vitro functional assay, forskolin-stimulated adenylate cyclase, cAMP). Type of data set: cell-based. As to conditions: 10 μM, percentage of forskolin-stimulated adenylate cyclase; for activity at 10 µM: 20 min, read-out: rNPY5 % FSAC (10 μM). How it is done:
D. Rat NYP5 Cyclase Assay (In Vitro Functional Assay)
Cells stably expressing the rat NPY5 receptor are resuspended in serum-free DMEM containing 10 mM HEPES (pH 7.4) and 1 mM isobutylmethylxanthine (IBMX). […] forskolin and drug dilution are then added to the cells. After a 20 minute incubation of the samples at 37° C, the assay is stopped by placing the samples in boiling water for 3 minutes. The cAMP produced in each sample is quantitated with a radioimmunoassay kit (NEN DuPont). Data are expressed as a percentage of forskolin-stimulated adenylate cyclase.

The next data set deals with T2, Human NPY5 receptor (Homo sapiens, UniProt Q15761).
T2 sequence (Q15761 1-445): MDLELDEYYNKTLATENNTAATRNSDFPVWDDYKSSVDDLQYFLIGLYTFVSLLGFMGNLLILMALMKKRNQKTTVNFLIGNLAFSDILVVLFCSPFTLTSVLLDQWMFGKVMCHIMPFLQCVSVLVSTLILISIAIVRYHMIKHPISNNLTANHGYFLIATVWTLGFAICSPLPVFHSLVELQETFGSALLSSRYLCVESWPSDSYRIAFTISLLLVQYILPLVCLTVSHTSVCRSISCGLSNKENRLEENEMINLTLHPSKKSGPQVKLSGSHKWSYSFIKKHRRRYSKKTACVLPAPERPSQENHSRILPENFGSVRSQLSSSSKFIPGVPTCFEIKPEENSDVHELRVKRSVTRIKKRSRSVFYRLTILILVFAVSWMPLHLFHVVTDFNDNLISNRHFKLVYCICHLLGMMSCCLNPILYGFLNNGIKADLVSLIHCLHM
The data set is described as follows: Human NPY5 receptor binding assay ([125I]PYY, membrane protein). As to conditions: [125I]PYY, read-out: hNPY5 IC50. Summed up: (§2)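 First, membrane protein, drug dilution and 75-100 pM [125I]PYY were combined in pH 7.4 Tris saline buffer containing divalent cations and 0.1% BSA. Next, samples were mixed 2 hours at room temperature. Finally, samples were filtered, washed ice-cold and counted; 1 μM PYY gave nonspecific binding.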

Data set [2] concerns the target T1, Rat NPY5 receptor. In words: Rat NPY5 receptor binding assay ([125I]PYY, membrane protein). The note with it: [125I]PYY, read-out: rNPY5 IC50. A digest of the protocol: as §2
In the next data set the target is T3, Y2 receptor (Homo sapiens, UniProt P49146).
T3 sequence (P49146 1-381): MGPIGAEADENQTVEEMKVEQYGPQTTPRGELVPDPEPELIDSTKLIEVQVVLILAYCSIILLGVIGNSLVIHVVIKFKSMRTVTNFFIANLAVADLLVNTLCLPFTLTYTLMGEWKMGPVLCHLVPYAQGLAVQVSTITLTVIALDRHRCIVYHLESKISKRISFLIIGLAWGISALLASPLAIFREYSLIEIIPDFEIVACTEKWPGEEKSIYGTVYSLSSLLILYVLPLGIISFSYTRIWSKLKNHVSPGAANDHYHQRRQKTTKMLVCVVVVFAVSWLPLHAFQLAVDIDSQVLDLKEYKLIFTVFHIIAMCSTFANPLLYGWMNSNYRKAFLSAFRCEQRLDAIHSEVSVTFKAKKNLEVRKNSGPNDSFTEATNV
The data set is described as follows: Y2 receptor binding assay ([125I]PYY, membrane protein). As to conditions: [125I]PYY, membrane protein; read-out: hNPY2 IC50. A digest of the protocol:
as §1

Another data set addresses T4, Human NPY1 receptor (Homo sapiens, UniProt P25929).
T4 construct: host or cells: SK-N-MC cells
T4 sequence (P25929 1-384): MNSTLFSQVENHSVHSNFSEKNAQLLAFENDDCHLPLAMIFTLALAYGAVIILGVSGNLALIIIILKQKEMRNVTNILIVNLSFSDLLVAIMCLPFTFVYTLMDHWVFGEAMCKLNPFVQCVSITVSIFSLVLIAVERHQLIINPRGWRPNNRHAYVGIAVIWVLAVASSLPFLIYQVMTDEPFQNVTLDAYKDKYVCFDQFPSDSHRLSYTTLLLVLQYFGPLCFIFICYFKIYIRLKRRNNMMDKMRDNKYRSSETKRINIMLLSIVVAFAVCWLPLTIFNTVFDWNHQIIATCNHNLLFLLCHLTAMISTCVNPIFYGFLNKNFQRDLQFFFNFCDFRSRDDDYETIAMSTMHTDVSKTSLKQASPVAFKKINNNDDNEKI
The data set is described as follows: Human NPY1 receptor binding assay ([125I]PYY, SK-N-MC cells). The note with it: [125I]PYY, SK-N-MC cells; read-out: hNPYI IC50. Summed up:
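Confluent SK-N-MC cells preincubated 30 min at room temperature in serum-free DMEM/25 mM HEPES pH 7.3 with BSA, bacitracin and PMSF, then incubated 3 h at room temperature with compound and ~50 pM [125I]PYY. Nonspecific binding defined with 1 μM NPY; bound radioactivity counted after Triton X-100 lysis.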

As usually defined, the IC50 is the concentration at which inhibition is half-maximal. As a reminder, the melting point is the temperature of the solid-liquid transition. Turning to `Cl.O=C(CN1CCC(n2c(=O)[nH]c3ccccc32)CC1)Nc1ccc(C(=O)c2ccccc2)cc1` [Compound 263, N-(4-Benzoyl-phenyl)-2-[4-(2-oxo-2,3-dihydro-benzoimidazol-1-yl)-piperidin-1-yl]-acetamide; hydrochloride], the melting point lay within 215 to 216 °C. Besides, at human Y4/PP1 receptor, the IC50 was more than 5000 nM. In addition, the activity at 10 µM at Rat NPY5 receptor [1] amounted to 97%. On Human NPY5 receptor, the IC50 turned out to be 4 nM. In addition, on Rat NPY5 receptor [2], the half-maximal inhibitory concentration (IC50) is 3 nM. Further, the IC50 on Y2 receptor was more than 5000 nM.

As to `Cl.O=C(CN1CCC(n2c(=O)[nH]c3ccccc32)CC1)Nc1ccc2c(c1)-c1ccccc1C2=O` [Compound 311, 2-[4-(2-Oxo-2,3-dihydro-benzoimidazol-1-yl)-piperidin-1-yl]-N-(9-oxo-9H-fluoren-3-yl)-acetamide; hydrochloride], the melting point came to 258 °C. Also, at Rat NPY5 receptor [1], the activity at 10 µM worked out at 95%. Moreover, the IC50 on Human NPY5 receptor turned out to be 0.47 nM. Also, the concentration for half-maximal inhibition (IC50) on Rat NPY5 receptor [2] worked out at 0.34 nM.

`Cl.O=C(CN1CCC(n2c(=O)[nH]c3ccccc32)CC1)Nc1ccc(-c2ccc(F)cc2)cc1` [Compound 327, N-(4′-Fluoro-biphenyl-4-yl)-2-[4-(2-oxo-2,3-dihydro-benzoimidazol-1-yl)-piperidin-1-yl]-acetamide; hydrochloride]: the melting point was determined as 289 °C. Besides, the “rNPY5 % FSAC (10 μM)” value on Rat NPY5 receptor [1] came to 101%. Also, the concentration for half-maximal inhibition (IC50) at Human NPY5 receptor was 110 nM. In addition, the IC50 on Rat NPY5 receptor [2] was 60 nM.

In the case of `O=C(CN1CCC(n2c(=O)[nH]c3ccccc32)CC1)Nc1ccc(O)cc1` [Compound 345, N-(4-Hydroxy-phenyl)-2-[4-(2-oxo-2,3-dihydro-benzoimidazol-1-yl)-piperidin-1-yl]-acetamide, reference compound], the half-inhibitory concentration (IC50) on human Y4/PP1 receptor is more than 5000 nM; on Human NPY5 receptor it was 2900 nM; on Human NPY1 receptor, more than 5000 nM; on Rat NPY5 receptor [2], 3300 nM; on Y2 receptor it was more than 5000 nM. Also, the activity at 10 µM on Rat NPY5 receptor [1] was 93%.

For `CCOc1ccc(NC(=O)CN2CCC(n3c(=O)[nH]c4ccccc43)CC2)c2ccccc12` [Compound 346, N-(4-Ethoxy-naphthalen-1-yl)-2-[4-(2-oxo-2,3-dihydro-benzoimidazol-1-yl)-piperidin-1-yl]-acetamide, reference compound], the half-inhibitory concentration (IC50) at human Y4/PP1 receptor is more than 5000 nM; at Human NPY5 receptor, 81 nM; at Human NPY1 receptor it was more than 5000 nM; at Rat NPY5 receptor [2], 63 nM; on Y2 receptor it was more than 5000 nM. The activity at 10 µM on Rat NPY5 receptor [1] stood at 105%.

`O=C(CN1CCC(n2c(=O)[nH]c3ccccc32)CC1)Nc1ccc(N=Nc2ccccc2)cc1` [Compound 349, 2-[4-(2-Oxo-2,3-dihydro-benzoimidazol-1-yl)-piperidin-1-yl]-N-(4-phenylazo-phenyl)-acetamide, reference compound]: the IC50 on human Y4/PP1 receptor was more than 5000 nM; on Human NPY5 receptor it was 138 nM; on Human NPY1 receptor, more than 5000 nM; on Rat NPY5 receptor [2], 165 nM; at Y2 receptor, more than 5000 nM. Moreover, the activity at 10 µM on Rat NPY5 receptor [1] amounted to 100%.

On to `O=C(CN1CCC(n2c(=O)[nH]c3ccccc32)CC1)Nc1ccc(Oc2ccccc2)cc1` [Compound 352, 2-[4-(2-Oxo-2,3-dihydro-benzoimidazol-1-yl)-piperidin-1-yl]-N-(4-phenoxy-phenyl)-acetamide, reference compound], for which the 50% inhibitory concentration (IC50) on human Y4/PP1 receptor is more than 5000 nM; on Human NPY5 receptor it was 53 nM; at Human NPY1 receptor, more than 5000 nM; on Rat NPY5 receptor [2], 62.8 nM; on Y2 receptor it was more than 5000 nM. Moreover, the activity at 10 µM at Rat NPY5 receptor [1] stood at 90%.

With `CC(=O)c1ccc(NC(=O)CN2CCC(n3c(=O)[nH]c4ccccc43)CC2)cc1` [Compound 354, N-(4-Acetyl-phenyl)-2-[4-(2-oxo-2,3-dihydro-benzoimidazol-1-yl)-piperidin-1-yl]-acetamide, reference compound], the 50% inhibitory concentration (IC50) is more than 5000 nM on human Y4/PP1 receptor; 143 nM on Human NPY5 receptor; more than 5000 nM on Human NPY1 receptor; 136 nM at Rat NPY5 receptor [2]; more than 5000 nM on Y2 receptor. In addition, at Rat NPY5 receptor [1], the activity at 10 µM was 98%.

As to `O=C(CN1CCC(n2c(=O)[nH]c3ccccc32)CC1)Nc1ccc(C(F)(F)F)cc1` [Compound 356, 2-[4-(2-Oxo-2,3-dihydro-benzoimidazol-1-yl)-piperidin-1-yl]-N-(4-trifluoromethyl-phenyl)-acetamide, reference compound], the half-maximal inhibitory concentration (IC50) is more than 5000 nM at human Y4/PP1 receptor; 259 nM at Human NPY5 receptor; more than 5000 nM at Human NPY1 receptor; 271 nM at Rat NPY5 receptor [2]; more than 5000 nM on Y2 receptor. The activity at 10 µM at Rat NPY5 receptor [1] is 105%.

`O=C(CN1CCC(n2c(=O)[nH]c3ccccc32)CC1)Nc1ccc([N+](=O)[O-])c(Cl)c1` [Compound 357, N-(3-Chloro-4-nitro-phenyl)-2-[4-(2-oxo-2,3-dihydro-benzoimidazol-1-yl)-piperidin-1-yl]-acetamide, reference compound]: the 50% inhibitory concentration (IC50) at human Y4/PP1 receptor is more than 5000 nM; at Human NPY5 receptor, 239 nM; on Human NPY1 receptor it was more than 5000 nM; at Rat NPY5 receptor [2], 229 nM; on Y2 receptor, more than 5000 nM. Also, on Rat NPY5 receptor [1], the activity at 10 µM is 112%.

Turning to `Cc1ccc(NC(=O)CN2CCC(n3c(=O)[nH]c4ccccc43)CC2)cc1` [Compound 359, 2-[4-(2-Oxo-2,3-dihydro-benzoimidazol-1-yl)-piperidin-1-yl]-N-p-tolyl-acetamide, reference compound], the half-inhibitory concentration (IC50) on human Y4/PP1 receptor was more than 5000 nM; on Human NPY5 receptor it was 1300 nM; at Human NPY1 receptor, more than 5000 nM; on Rat NPY5 receptor [2] it was 1200 nM; at Y2 receptor it was more than 5000 nM. For the same compound, the activity at 10 µM at Rat NPY5 receptor [1] came out at 104%.

(Values after patent US6410792B1, “Amide derivatives and methods for using the same as selective neuropeptide Y receptor antagonists” (Bayer Corporation, priority 1997, dated 2002).)
